Source: US11414431B2, “Substituted pyrazolo[1,5-a]pyrimidines as TYK2 inhibitors” (Nimbus Lakshmi, Inc., priority 2018, dated 2022)

Assays:
[1] = biological target: human TYK2 (JH2domain-pseudokinase) (Homo sapiens (Human), UniProt P29597); assay: TYK2 JH2 Domain Binding Assay (KINOMEscan); details: 11-point 3-fold dilution, top concentration 30,000 nM, duplicate; read-out: hTYK2_JH2_Binding (Kd; nM)
In short: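 KINOMEscan competition binding: HEK293-expressed NFkB-fused TYK2 JH2 (G556–D888), DNA-tagged, against immobilized ligand beads, 1 h shaking at room temperature, 0.9% DMSO. Bound kinase quantified by qPCR.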

[2] = tested on: IL-12 induced STAT4 phosphorlyation mediated by TYK2/JAK2; assay: IL-12 Induced pSTAT4 in Human PBMC; type: cell-based; details: 1.7 ng/mL IL-12 for 30 minutes
In short: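 pSTAT4 and total STAT4 quantified by MSD in lysates of cryopreserved human PBMC after 30-minute stimulation with 1.7 ng/mL IL-12 (final). Compound was added 1 hr beforehand at 37° C, 0.1% DMSO final.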

human TYK2 (JH2domain-pseudokinase), sequence (P29597 556-888): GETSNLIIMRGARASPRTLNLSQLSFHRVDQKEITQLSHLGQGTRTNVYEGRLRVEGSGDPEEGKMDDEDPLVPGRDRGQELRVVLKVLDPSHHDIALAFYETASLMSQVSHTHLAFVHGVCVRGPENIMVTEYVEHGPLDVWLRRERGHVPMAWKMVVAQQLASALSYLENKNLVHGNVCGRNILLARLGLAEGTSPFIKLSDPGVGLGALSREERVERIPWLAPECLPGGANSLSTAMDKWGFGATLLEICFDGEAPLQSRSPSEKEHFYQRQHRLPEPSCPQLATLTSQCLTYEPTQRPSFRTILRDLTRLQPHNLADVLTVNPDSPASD

SMILES: CNc1cc(Nc2cccn([C@H]3C[C@@H]3F)c2=O)nc2c(C(=O)N[C@H]3CC[C@@H]3OC)cnn12 [Compound I-49, 5-((1-((1S,2S)-2-Fluorocyclopropyl)-2-oxo-1,2-dihydropyridin-3-yl)amino)-N-((1S,2S)-2-methoxycyclobutyl)-7-(methylamino)pyrazolo[1,5-a]pyrimidine-3-carboxamide]
- Kd [1]: < 0.2 nM
- IC50 ([2]; 0.5 h): < 0.1 µM

SMILES: CNc1cc(Nc2cccn([C@@H]3C[C@H]3F)c2=O)nc2c(C(=O)N[C@@H]3CC[C@H]3OC)cnn12 [Compound I-53, 5-((1-((1R,2R)-2-Fluorocyclopropyl)-2-oxo-1,2-dihydropyridin-3-γ1)amino)-N-((1R,2R)-2-methoxycyclobutyl)-7-(methylamino)pyrazolo[1,5-a]pyrimidine-3-carboxamide]
- Kd [1]: < 0.2 nM
- IC50 [2]: < 0.1 µM

SMILES: CNc1cc(Nc2cccn(-c3ccccn3)c2=O)nc2c(C(N)=O)cnn12 [Compound I-119]
- Kd [1]: < 0.2 nM
- IC50 [2]: 0.1 to 0.5 µM

SMILES: CNc1cc(Nc2cccn([C@H]3C[C@H](F)C3)c2=O)nc2c(C(=O)N[C@H]3C[C@@H]3OC)cnn12 [Compound I-138]
- Kd [1]: < 0.2 nM
- IC50 [2]: < 0.1 µM

SMILES: CNc1cc(Nc2cccn([C@H]3C[C@H](OC)C3)c2=O)nc2c(C(=O)NC3CCC3)cnn12 [Compound I-141]
- Kd [1]: < 0.2 nM
- IC50 [2]: < 0.1 µM

SMILES: CNc1cc(Nc2cccn([C@H]3[C@@H]4COC[C@@H]43)c2=O)nc2c(C(=O)NC3CCC3)cnn12 [Compound I-142]
- Kd [1]: < 0.2 nM
- IC50 [2]: < 0.1 µM

SMILES: CNc1cc(Nc2cccn(C3CCOCC3)c2=O)nc2c(C(=O)NC3CCC3)cnn12 [Compound I-143]
- Kd [1]: < 0.2 nM
- IC50 [2]: < 0.1 µM

SMILES: CNc1cc(Nc2cccn(-c3ocnc3C)c2=O)nc2c(C(=O)NC3CCC3)cnn12 [Compound I-144]
- Kd [1]: < 0.2 nM
- IC50 [2]: < 0.1 µM

SMILES: CNc1cc(Nc2cccn(C3COC3)c2=O)nc2c(C(=O)NC3CC[C@H]3F)cnn12 (stereo partly drawn) [Compound I-160]
- Kd [1]: < 0.2 nM
- IC50 [2]: < 0.1 µM

SMILES: CNc1cc(Nc2cccn(C3COC3)c2=O)nc2c(C(=O)N[C@@H]3CC[C@@H]3F)cnn12 [Compound I-162]
- Kd [1]: < 0.2 nM
- IC50 [2]: < 0.1 µM

SMILES: CNc1cc(Nc2cccn(C3COC3)c2=O)nc2c(C(=O)NC3CC[C@@H]3F)cnn12 (stereo partly drawn) [Compound I-163]
- Kd [1]: < 0.2 nM
- IC50 [2]: < 0.1 µM

SMILES: CNc1cc(Nc2cccn(-c3ocnc3C)c2=O)nc2c(C(=O)NC3CC[C@@H]3F)cnn12 (stereo partly drawn) [Compound I-185]
- Kd [1]: < 0.2 nM
- IC50 [2]: < 0.1 µM

SMILES: CNc1cc(Nc2cccn(-c3ocnc3C)c2=O)nc2c(C(=O)N[C@H]3CC[C@@H]3F)cnn12 [Compound I-186]
- Kd [1]: < 0.2 nM
- IC50 [2]: < 0.1 µM

SMILES: CO[C@H]1CC[C@@H]1NC(=O)c1cnn2c(N)cc(Nc3cccn(-c4ccccn4)c3=O)nc12 [Compound I-246]
- Kd [1]: < 0.2 nM
- IC50 [2]: 0.1 to 0.5 µM

SMILES: CO[C@@H]1CC[C@H]1NC(=O)c1cnn2c(N)cc(Nc3cccn(-c4ccccn4)c3=O)nc12 [Compound I-247]
- Kd [1]: > 10 nM
- IC50 [2]: 0.1 to 0.5 µM

SMILES: CNc1cc(Nc2cccn([C@H]3[C@@H]4COC[C@@H]43)c2=O)nc2c(C(=O)N[C@H]3CCC3(F)F)cnn12 [Compound I-307]
- Kd [1]: < 0.2 nM
- IC50 [2]: < 0.1 µM

SMILES: CNc1cc(Nc2cccn(C(C)C)c2=O)nc2c(C(=O)N[C@@H]3CC[C@@]3(C)O)cnn12 [Compound I-341]
- Kd [1]: < 0.2 nM
- IC50 [2]: < 0.1 µM

SMILES: CNc1ccc(-c2cc(NC)n3ncc(C(=O)N[C@@H]4C[C@@H]4F)c3n2)n2ccnc12 [Compound I-479]
- Kd [1]: < 0.2 nM
- IC50 [2]: < 0.1 µM

SMILES: CNc1ccc(-c2cc(NC)n3ncc(C(=O)NC4CC[C@@H]4OC)c3n2)n2ccnc12 (stereo partly drawn) [Compound I-488]
- Kd [1]: < 0.2 nM
- IC50 [2]: < 0.1 µM

SMILES: CNc1ccc(-c2cc(NC)n3ncc(C(=O)N[C@@H]4CC[C@H]4OC)c3n2)n2ccnc12 [Compound I-490]
- Kd [1]: < 0.2 nM
- IC50 [2]: < 0.1 µM

SMILES: CNc1cc(-c2cn([C@H]3C[C@@H](O)C3)c3ncccc23)nc2c(C(=O)NC3CC3)cnn12 [Compound I-495]
- Kd [1]: < 0.2 nM
- IC50 [2]: < 0.1 µM

SMILES: CNc1cc(-c2cn([C@H]3C[C@@H](O)C3)c3ncccc23)nc2c(C(=O)N[C@@H]3C[C@@H]3F)cnn12 [Compound I-500]
- Kd [1]: < 0.2 nM
- IC50 [2]: 0.1 to 0.5 µM

SMILES: CNc1cc(-c2cn([C@@H]3COC[C@H]3O)c3ncccc23)nc2c(C(=O)N[C@@H]3C[C@@H]3F)cnn12 [Compound I-502]
- Kd [1]: < 0.2 nM
- IC50 [2]: 0.1 to 0.5 µM

SMILES: CNc1cc(-c2cn(C3COC3)c3ncccc23)nc2c(C(=O)NC3CC[C@@H]3F)cnn12 (stereo partly drawn) [Compound I-507]
- Kd [1]: < 0.2 nM
- IC50 [2]: < 0.1 µM

SMILES: CNc1cc(-c2cn(C3COC3)c3ncccc23)nc2c(C(=O)N[C@H]3CC[C@@H]3F)cnn12 [Compound I-508]
- Kd [1]: < 0.2 nM
- IC50 [2]: < 0.1 µM

SMILES: CNc1cc(-c2cn(C3CN(C)C3)c3ncccc23)nc2c(C(=O)NC3CC[C@@H]3OC)cnn12 (stereo partly drawn) [Compound I-608]
- Kd [1]: < 0.2 nM
- IC50 [2]: < 0.1 µM

SMILES: O=C(N[C@@H]1C[C@@H]1F)c1cnn2c3c(c(Nc4cccc5ocnc45)nc12)OCCN3 [Compound I-752]
- Kd [1]: < 0.2 nM
- IC50 [2]: < 0.1 µM

SMILES: CC(C)n1cc(-c2nc3c(C(=O)NC4CC[C@H]4O)cnn3c3c2OCCN3)c2cccnc21 (stereo partly drawn) [Compound I-753]
- Kd [1]: < 0.2 nM
- IC50 [2]: < 0.1 µM

SMILES: CC(C)n1cc(-c2nc3c(C(=O)N[C@H]4CC[C@H]4O)cnn3c3c2OCCN3)c2cccnc21 [Compound I-754]
- Kd [1]: < 0.2 nM
- IC50 [2]: < 0.1 µM

SMILES: O=C(NC1CC[C@@H]1F)c1cnn2c3c(c(-c4cn([C@H]5C[C@H](O)C5)c5ncccc45)nc12)OCCN3 (stereo partly drawn) [Compound I-756]
- Kd [1]: < 0.2 nM
- IC50 [2]: < 0.1 µM

SMILES: O=C(N[C@H]1CC[C@@H]1F)c1cnn2c3c(c(-c4cn([C@H]5C[C@H](O)C5)c5ncccc45)nc12)OCCN3 [Compound I-757]
- Kd [1]: < 0.2 nM
- IC50 [2]: < 0.1 µM

SMILES: CO[C@@H]1CCC1NC(=O)c1cnn2c3c(c(Nc4cccn([C@H]5[C@@H]6COC[C@@H]65)c4=O)nc12)OCCN3 (stereo partly drawn) [Compound I-762]
- Kd [1]: < 0.2 nM
- IC50 [2]: < 0.1 µM

SMILES: CC(C)n1cccc(Nc2nc3c(C(=O)NC4CCC4(F)F)cnn3c3c2OCCN3)c1=O (stereo not drawn) [Compound I-765]
- Kd [1]: < 0.2 nM
- IC50 [2]: < 0.1 µM

SMILES: CC(C)n1cccc(Nc2nc3c(C(=O)N[C@H]4CCC4(F)F)cnn3c3c2OCCN3)c1=O [Compound I-766]
- Kd [1]: < 0.2 nM
- IC50 [2]: < 0.1 µM

SMILES: O=C(NC1CCC1(F)F)c1cnn2c3c(c(Nc4cccn([C@H]5[C@@H]6COC[C@@H]65)c4=O)nc12)OCCN3 (stereo partly drawn) [Compound I-768]
- Kd [1]: < 0.2 nM
- IC50 [2]: < 0.1 µM

SMILES: O=C(N[C@@H]1CCC1(F)F)c1cnn2c3c(c(Nc4cccn([C@H]5[C@@H]6COC[C@@H]65)c4=O)nc12)OCCN3 [Compound I-769]
- Kd [1]: < 0.2 nM
- IC50 [2]: < 0.1 µM

SMILES: O=C(NC1CCC1(F)F)c1cnn2c3c(c(-c4cn(C5COC5)c5ncccc45)nc12)OCCN3 (stereo not drawn) [Compound I-771, N-(2,2-Difluorocyclobutyl)-5-(1-(oxetan-3-yl)-1H-pyrrolo[2,3-b]pyridin-3-yl)-2,3-dihydro-1H-pyrazolo[5′,1′:2,3]pyrimido[5,4-b][1,4]oxazine-7-carboxamide]
- Kd [1]: < 0.2 nM
- IC50 ([2]; 0.5 h): < 0.1 µM

SMILES: O=C(N[C@@H]1CCC1(F)F)c1cnn2c3c(c(-c4cn(C5COC5)c5ncccc45)nc12)OCCN3 [Compound I-772]
- Kd [1]: < 0.2 nM
- IC50 [2]: < 0.1 µM

SMILES: O=C(NC1CC[C@@H]1F)c1cnn2c3c(c(-c4cn(C5COC5)c5ncccc45)nc12)OCCN3 (stereo partly drawn) [Compound I-774]
- Kd [1]: < 0.2 nM
- IC50 [2]: < 0.1 µM
